Experimental data as given in the supplement of paper PMC10307832.

What was measured:
Test in all cases: relative viability (nuclei count vs DMSO), 5 days (fraction); higher = more cells survive
[1] = compound: O=C(Nc1cc(C(F)(F)F)cc(C(F)(F)F)c1)c1cc(Cl)ccc1O [IMD-0354] + Cc1nc(NC(=O)N2CCC[C@H]2C(N)=O)sc1-c1ccnc(C(C)(C)C(F)(F)F)c1 [Alpelisib] (partner 2 µM)
In short: (§1)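 Lung cancer cell lines in 1536-well plates got either a single drug or a fixed anchor-drug dose together with five library-drug doses (not always all listed) in √10 steps, by pin tool, on the day after seeding. Nuclei were counted after 5 days, and relative viability is the treated-to-vehicle ratio of nuclei counts. Values are medians of duplicate plates.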

[2] = compound: Cc1cnc(CNC(=O)c2c(=O)c3ccc(N4CCCN(C)CC4)nc3n3c2sc2ccccc23)cn1 [CX-5461] + O=C(CCCCCCC(=O)Nc1ccccc1)NO [Vorinostat] (partner 1 µM)
In short: as §1

[3] = compound: Cc1cnc(CNC(=O)c2c(=O)c3ccc(N4CCCN(C)CC4)nc3n3c2sc2ccccc23)cn1 [CX-5461] + Nc1ncn([C@H]2C[C@H](O)[C@@H](CO)O2)c(=O)n1 [Decitabine] (partner 2 µM)
In short: as §1

[4] = compound: O=C(Nc1cc(C(F)(F)F)cc(C(F)(F)F)c1)c1cc(Cl)ccc1O [IMD-0354] + CS(=O)(=O)CCNCc1ccc(-c2ccc3ncnc(Nc4ccc(OCc5cccc(F)c5)c(Cl)c4)c3c2)o1 [Lapatinib] (partner 2 µM)
In short: as §1

Cell Line	relative viability ([1]; first compound 0.04 µM)	relative viability ([1]; first compound 0.1265 µM)	relative viability ([1]; first compound 0.4 µM)	relative viability ([1]; first compound 1.265 µM)	relative viability ([1]; first compound 4 µM)	relative viability ([2]; first compound 0.01 µM)	relative viability ([2]; first compound 0.03162 µM)	relative viability ([2]; first compound 0.1 µM)	relative viability ([2]; first compound 0.3162 µM)	relative viability ([2]; first compound 1 µM)	relative viability ([3]; first compound 0.01 µM)	relative viability ([3]; first compound 0.03162 µM)	relative viability ([3]; first compound 0.1 µM)	relative viability ([3]; first compound 0.3162 µM)	relative viability ([3]; first compound 1 µM)	relative viability ([4]; first compound 0.04 µM)	relative viability ([4]; first compound 0.1265 µM)	relative viability ([4]; first compound 0.4 µM)	relative viability ([4]; first compound 1.265 µM)	relative viability ([4]; first compound 4 µM)
NCI-H1666	0.982	0.961	0.966	0.208	0.196	0.986	1.05	1.07	0.981	0.975	0.768	0.671	0.737	0.701	0.731	0.631	0.617	0.452	0.176	0.167
NCI-H1734	0.944	0.786	0.422	0.452	0.254	0.83	0.908	0.744	0.278	0.35	0.509	0.489	0.557	0.483	0.483	1.23	1.07	0.493	0.232	0.218
NCI-H1755	0.964	0.562	0.43	0.57	0.222	0.806	0.793	0.735	0.722	0.667	0.782	0.763	0.66	0.687	0.69	1.31	1.1	0.598	0.303	0.197
NCI-H1793	0.686	0.64	0.34	0.369	0.226	0.894	0.927	0.786	0.367	0.645	0.504	0.446	0.535	0.379	0.581	0.651	0.613	0.347	0.238	0.323
NCI-H1915	0.926	1.05	0.854	0.612	0.214	0.554	0.567	0.503	0.427	0.482	0.266	0.259	0.284	0.244	0.283	0.869	0.941	0.605	0.761	0.192
NCI-H1944	0.694	0.854		0.902	0.144	0.538	0.569	0.383	0.25	0.271	0.478	0.443	0.429	0.371	0.44	0.699	0.862		0.922	0.171
NCI-H1975	0.799	0.679	0.36	0.167	0.204	0.686	0.719	0.684	0.696	0.459	0.404	0.36	0.424	0.447	0.276	1.13	0.875	0.575	0.194	0.185
NCI-H1993	0.762	0.695	0.581	0.487	0.514	1.11	0.988	0.889	0.403	0.638	1.37	0.64	0.668	0.29	0.577	0.79	0.788	0.754	0.497	0.562
NCI-H2009	1.14	1.03	0.929	0.239	0.127	0.755	0.716	0.652	0.661	0.332	0.41	0.374	0.335	0.37	0.308	0.82	0.832	0.647	0.134	0.155
NCI-H2023	0.696	0.577	0.439	0.312	0.122	0.564	0.355		0.15	0.0756	0.223	0.178		0.178	0.0728	0.717	0.841	0.662	0.0897	0.084
NCI-H2085	0.899	0.888	0.764	0.492	0.269	0.854	0.82	0.708	0.865	0.719	0.58	0.524	0.569	0.563	0.517	0.78	0.797	0.64	0.389	0.298
NCI-H2087	1.04	0.938	0.329	0.136	0.131	0.625	0.709	0.754	0.696	0.527	0.277	0.306	0.213	0.288	0.188	0.872	0.991	0.419	0.137	0.178
NCI-H2126	0.784	0.722	0.682	0.714	0.263	0.725	0.861	0.79	0.522	0.881	0.573	0.559	0.618	0.64	0.567	0.793	0.803	0.655	0.768	0.378
NCI-H2170	0.752	0.785	0.603	0.835	0.373	0.887	0.772	0.846	0.743	0.703	0.471	0.454	0.493	0.504	0.446	0.275	0.288	0.255	0.252	0.223
NCI-H2347	1.05	1.12	0.772	0.498	0.37	0.457	0.608	0.512	0.552	0.501	0.628	0.638	0.625	0.604	0.589	0.863	0.972	0.632	0.201	0.434
NCI-H2405	0.961	0.835	0.609	0.306	0.163	1.04	0.872	0.994	0.939	0.669	0.829	0.779	0.773	0.64	0.608	1.38	1.24	0.69	0.243	0.202
